Earlier results, collected in patent US20130280331A1, “Depot Compositions with multiple drug release rate controls and uses thereof” (Durect Corporation, priority 2001, published 2013).

Question: With `CC(=O)OCC(COC(C)=O)OC(C)=O` [triacetin] as the compound, how does the “reported solubility in water” value read?
Answer: The value was 7.17 grams in 100 ml of water.
